Like-named read-outs stand apart in the source and are kept apart here.
How the values were obtained:
hMPV-GFP virus = experiment: microbe, parasite or virus in culture; format: cell-based, human metapneumovirus
Outline: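 Antiviral IC50 was derived from imaging counts of GFP-expressing cells, with CC50 from a same-well CellTiter-Glo read, both by 4-parameter logistic fitting. VERO cells plus hMPV-GFP (MOI 1.25) were exposed 48 h at 37 °C to 10-point 3-fold compound dilutions (typical final 40,300–2 nM).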

RSV-A2-GFP virus = experiment: microbe, parasite or virus in culture; format: cell-based, Human Respiratory Syncytial Virus
Outline: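 IC50 (GFP-expressing cell counts by Acumen imaging) and CC50 (same-well CellTiter-Glo) were obtained by 4-parameter logistic fitting. Compounds were tested in 10-point 3-fold series for 96 h at 37° C, 5% CO2. Thawed Calu-1 ARF cells were infected at MOI 1.2 with GFP-reporter RSV-A2 in 2% FBS DMEM.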

[1] = VERO cells infected with hMPV-GFP, 48 hrs, GFP-expressing cells counted, read-out: hMPV EC50
[2] = Calu-1 cells infected with RSV-A2-GFP, 96 hrs, GFP-expressing cells counted, read-out: RSV EC50
[3] = human metapneumovirus, Vero, 48 h, read-out: hMPV EC50, VERO cells infected with hMPV-GFP, 48 hrs, GFP-expressing cells counted
[4] = human respiratory syncytial virus, Calu-1, 96 h, read-out: RSV EC50, Calu-1 cells infected with RSV-A2-GFP, 96 hrs, GFP-expressing cells counted

Structure (SMILES) | EC50 (hMPV-GFP virus; [1]) | EC50 (RSV-A2-GFP virus; [2]) | EC50 (hMPV-GFP virus; [3]) | EC50 (RSV-A2-GFP virus; [4])
Cc1nn(-c2ncccn2)cc1C(=O)N1C[C@@H]2[C@H](C1)[C@H]2Oc1cc(C(C)(C)N)cc(NC(C)C2CCCC2)n1 (stereo partly drawn) [Example 128A, ent-((1R,5S,6s)-6-((4-(2-aminopropan-2-yl)-6-((1-cyclopentylethyl)amino)pyridin-2-yl)oxy)-3-azabicyclo[3.1.0]hexan-3-yl)(3-methyl-1-(pyrimidin-2-yl)-1H-pyrazol-4-yl)methanone] | > 100 nM | < 10 nM |  | 
Cc1nc(-c2ncccn2)sc1C(=O)N1C[C@@H]2[C@H](C1)[C@H]2Oc1cc(C(C)(C)N)cc(-c2ccc(C(F)(F)F)cc2Cl)n1 [Example 30, ((1R,5S,6s)-6-((4-(2-aminopropan-2-yl)-6-(2-chloro-4-(trifluoromethyl)phenyl)pyridin-2-yl)oxy)-3-azabicyclo[3.1.0]hexan-3-yl)(4-methyl-2-(pyrimidin-2-yl)thiazol-5-yl)methanone] | 10 to 100 nM | < 10 nM |  | 
CC(C)(N)c1cc(O[C@H]2[C@@H]3CN(C(=O)c4cc(-c5ncccn5)ns4)C[C@@H]32)nc(-c2ccc(F)cc2)c1 [Example 77, ((1R,5S,6s)-6-((4-(2-aminopropan-2-yl)-6-(4-fluorophenyl)pyridin-2-yl)oxy)-3-azabicyclo[3.1.0]hexan-3-yl)(3-(pyrimidin-2-yl)isothiazol-5-yl)methanone] | > 100 nM | < 10 nM |  | 
CCC(C)(N)c1cc(OC2[C@H]3CN(C(=O)c4cn(-c5ncccn5)nc4C)C[C@@H]23)nc(-c2ccc(F)cc2)c1 (single isomer, unassigned; enantiomer 2) [Example 116B] | > 100 nM | < 10 nM |  | 
Cc1nc(-c2ncccn2)sc1C(=O)N1C[C@@H]2[C@H](C1)[C@H]2Oc1cc(C(C)(C)N)cc(C2=CCCCC2)n1 [Example 45, ((1R,5S,6s)-6-((4-(2-aminopropan-2-yl)-6-(cyclohex-1-en-1-yl)pyridin-2-yl)oxy)-3-azabicyclo[3.1.0]hexan-3-yl)(4-methyl-2-(pyrimidin-2-yl)thiazol-5-yl)methanone] | > 100 nM | < 10 nM |  | 
Cn1nc(-c2ncccn2)c(F)c1C(=O)N1C[C@@H]2[C@H](C1)[C@H]2Oc1cc(C(C)(C)N)cc(-c2ccc(F)cc2)n1 [Example 54, ((1R,5S,6s)-6-((4-(2-aminopropan-2-yl)-6-(4-fluorophenyl)pyridin-2-yl)oxy)-3-azabicyclo[3.1.0]hexan-3-yl)(4-fluoro-1-methyl-3-(pyrimidin-2-yl)-1H-pyrazol-5-yl)methanone] |  |  | > 100 nM | < 10 nM
Cn1nc(-c2ncccn2)cc1C(=O)N1C[C@@H]2[C@H](C1)[C@H]2Oc1cc(C(C)(C)N)cc(-c2ccc(F)cc2Cl)n1 [Example 57, ((1R,5S,6s)-6-((4-(2-aminopropan-2-yl)-6-(2-chloro-4-fluorophenyl)pyridin-2-yl)oxy)-3-azabicyclo[3.1.0]hexan-3-yl)(1-methyl-3-(pyrimidin-2-yl)-1H-pyrazol-5-yl)methanone] | > 100 nM | < 10 nM |  | 
CCc1nn(-c2ncccn2)cc1C(=O)N1C[C@@H]2[C@H]1C[C@H]2Oc1cc(C(C)(C)N)cc(-c2ccc(F)cc2)n1 (single isomer, unassigned; enantiomer 2) [Example 5] |  |  | > 100 nM | < 10 nM
Cc1nn(-c2ncccn2)cc1C(=O)N1C[C@@H]2[C@H](C1)[C@H]2Oc1cc(C(C)(C)N)cc(N2CCC(C(F)(F)F)CC2)n1 [Example 102, ((1R,5S,6s)-6-((4-(2-aminopropan-2-yl)-6-(4-(trifluoromethyl)piperidin-1-yl)pyridin-2-yl)oxy)-3-azabicyclo[3.1.0]hexan-3-yl)(3-methyl-1-(pyrimidin-2-yl)-1H-pyrazol-4-yl)methanone] | > 100 nM | < 10 nM |  | 
Cc1nc(-c2ncccn2)sc1C(=O)N1C[C@@H]2[C@H](C1)[C@H]2Oc1cc(C(C)(C)N)cc(-c2ccc(OC(F)F)cc2)n1 [Example 24, ((1R,5S,6s)-6-((4-(2-aminopropan-2-yl)-6-(4-(difluoromethoxy)phenyl)pyridin-2-yl)oxy)-3-azabicyclo[3.1.0]hexan-3-yl)(4-methyl-2-(pyrimidin-2-yl)thiazol-5-yl)methanone] | 10 to 100 nM | < 10 nM |  | 
Cc1nn(-c2ncccn2)cc1C(=O)N1C[C@@H]2[C@H](C1)[C@H]2Oc1cc(C(C)(C)N)cc(-c2cc3ccccc3[nH]2)n1 [Example 89, ((1R,5S,6s)-6-((4-(2-aminopropan-2-yl)-6-(1H-indol-2-yl)pyridin-2-yl)oxy)-3-azabicyclo[3.1.0]hexan-3-yl)(3-methyl-1-(pyrimidin-2-yl)-1H-pyrazol-4-yl)methanone] | > 100 nM | < 10 nM |  | 
COc1nn(-c2ncccn2)cc1C(=O)N1C[C@@H]2[C@H](C1)[C@H]2Oc1cc(C(C)(C)N)cc(N2CCC(C)(C)CC2)n1 [Example 122, ((1R,5S,6s)-6-((4-(2-aminopropan-2-yl)-6-(4,4-dimethylpiperidin-1-yl)pyridin-2-yl)oxy)-3-azabicyclo[3.1.0]hexan-3-yl)(3-methoxy-1-(pyrimidin-2-yl)-1H-pyrazol-4-yl)methanone] |  |  | > 100 nM | < 10 nM
Cc1nn(-c2ncccn2)cc1C(=O)N1C[C@@H]2[C@H](C1)[C@H]2Oc1cc(C(C)(C)N)cc(-c2ccc(F)c(Cl)c2)n1 [Example 83, ((1R,5S,6s)-6-((4-(2-aminopropan-2-yl)-6-(3-chloro-4-fluorophenyl)pyridin-2-yl)oxy)-3-azabicyclo[3.1.0]hexan-3-yl)(3-methyl-1-(pyrimidin-2-yl)-1H-pyrazol-4-yl)methanone] | > 100 nM | < 10 nM |  | 
CC(C)(N)c1cc(O[C@H]2[C@@H]3CN(C(=O)c4cn(-c5ncccn5)nc4Cn4nccn4)C[C@@H]32)nc(-c2ccc(F)cc2)c1 [Example 130, (3-((2H-1,2,3-triazol-2-yl)methyl)-1-(pyrimidin-2-yl)-1H-pyrazol-4-yl)((1R,5S,6s)-6-((4-(2-aminopropan-2-yl)-6-(4-fluorophenyl)pyridin-2-yl)oxy)-3-azabicyclo[3.1.0]hexan-3-yl)methanone] |  |  | > 100 nM | < 10 nM
CC(C)(N)c1cc(O[C@H]2[C@@H]3CN(C(=O)c4cn(-c5ncccn5)nc4CO)C[C@@H]32)nc(-c2ccc(F)c(F)c2)c1 [Example 95, ((1R,5S,6s)-6-((4-(2-aminopropan-2-yl)-6-(3,4-difluorophenyl)pyridin-2-yl)oxy)-3-azabicyclo[3.1.0]hexan-3-yl)(3-(hydroxymethyl)-1-(pyrimidin-2-yl)-1H-pyrazol-4-yl)methanone] |  |  | > 100 nM | < 10 nM
Cc1nc(-c2ncccn2)sc1C(=O)N1C[C@@H]2[C@H](C1)[C@H]2Oc1cc(C(C)(C)N)cc(-c2ccc(C(C)(F)F)cc2)n1 [Example 26, ((1R,5S,6s)-6-((4-(2-aminopropan-2-yl)-6-(4-(1,1-difluoroethyl)phenyl)pyridin-2-yl)oxy)-3-azabicyclo[3.1.0]hexan-3-yl)(4-methyl-2-(pyrimidin-2-yl)thiazol-5-yl)methanone] | 10 to 100 nM | < 10 nM |  | 
CCc1nn(-c2ncccn2)cc1C(=O)N1C[C@@H]2[C@H](C1)[C@H]2Oc1cc(C(C)(C)N)cc(-c2ccc(F)cc2)n1 [Example 64, ((1R,5S,6s)-6-((4-(2-aminopropan-2-yl)-6-(4-fluorophenyl)pyridin-2-yl)oxy)-3-azabicyclo[3.1.0]hexan-3-yl)(3-ethyl-1-(pyrimidin-2-yl)-1H-pyrazol-4-yl)methanone] | > 100 nM | < 10 nM |  | 
